Patent publication US10098881B2, “Compounds” (AUTIFONY THERAPEUTICS LIMITED, priority 2011, dated 2018)

Key:
Male CD-1 mice = test: Biological Example 2: psychostimulant (amphetamine)-induced hyperactivity in mice; conditions: for Locomotor activity (beam crosses): over 60 minutes, mean ± sem
[1] = target: T1, human Kv3.2 channels (hKv3.2) (Homo sapiens, UniProt Q96PR1); test: Biological Example 1: hKv3.2 whole-cell currents, IonWorks Quattro planar array electrophysiology; format: cell-based; conditions: hKv3.2, -15 mV voltage step
T1 construct: expressed in transfected cells
T1 sequence (Q96PR1 1-638): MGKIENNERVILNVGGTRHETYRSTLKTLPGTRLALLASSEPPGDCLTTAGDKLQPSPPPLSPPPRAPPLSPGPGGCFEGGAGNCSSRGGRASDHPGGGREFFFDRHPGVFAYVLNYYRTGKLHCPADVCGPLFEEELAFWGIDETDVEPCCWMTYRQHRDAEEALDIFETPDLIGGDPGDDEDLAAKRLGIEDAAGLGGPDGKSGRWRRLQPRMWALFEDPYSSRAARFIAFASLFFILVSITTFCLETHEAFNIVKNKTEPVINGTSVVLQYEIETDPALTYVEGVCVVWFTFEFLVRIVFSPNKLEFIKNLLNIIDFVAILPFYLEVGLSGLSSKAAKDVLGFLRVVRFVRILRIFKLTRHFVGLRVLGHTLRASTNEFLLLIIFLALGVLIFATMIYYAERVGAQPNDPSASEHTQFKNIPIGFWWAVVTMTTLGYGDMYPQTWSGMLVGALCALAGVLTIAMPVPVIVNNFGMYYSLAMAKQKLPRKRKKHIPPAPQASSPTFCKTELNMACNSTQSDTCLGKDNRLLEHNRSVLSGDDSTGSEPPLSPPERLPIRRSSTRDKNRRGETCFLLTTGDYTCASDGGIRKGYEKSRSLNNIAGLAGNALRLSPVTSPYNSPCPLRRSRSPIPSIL
Text: The ability of the compounds of the invention to modulate the voltage-gated potassium channel subtypes Kv3.2 or Kv3.1 may be determined using the following assay. Analogous methods may be used to investigate the ability of the compounds of the invention to modulate other channel subtypes, including Kv3.3 and Kv3.4.
To assess compound effects on human Kv3.2 channels (hKv3.2), a stable cell line expressing hKv3.2 was created by transfecting Chinese Hamster Ovary (CHO)-K1 cells with a pClH5-hKv3.2 vector. Cells were cultured in DMEM/F12 medium supplemented by 10% Foetal Bovine Serum, lx non-essential amino acids (Invitrogen) and 500 ug/ml of Hygromycin-B (Invitrogen). Cells were grown and maintained at 37° C. in a humidified environment containing 5% CO2 in air.
The day of the experiment, cells were removed from the incubator and the culture medium removed. Cells were washed with 5 ml of Dulbecco's PBS (DPBS) calcium and magnesium free and detached by the addition of 3 ml Versene (Invitrogen, Italy) followed by a brief incubation at 37° C. for 5 minutes. The flask was tapped to dislodge cells and 10 ml of DPBS containing calcium and magnesium was added to prepare a cell suspension. The cell suspension was then placed into a 15 ml centrifuge tube and centrifuged for 2 min at 1200 rpm. After centrifugation, the supernatant was removed and the cell pellet re-suspended in 4 ml of DPBS containing calcium and magnesium using a 5 ml pipette to break up the pellet. Cell suspension volume was then corrected to give a cell concentration for the assay of approximately 3 million cells per ml.
Experiments were conducted at room temperature using IonWorks Quattro™ planar array electrophysiology technology (Molecular Devices Corp.) with PatchPlate™ PPC. Stimulation protocols and data acquisition were carried out using a microcomputer (Dell Pentium 4). Planar electrode hole resistances (Rp) were determined by applying a 10 mV voltage step across each well. These measurements were performed before cell addition. […] Following this, amphotericin-B solution was added to the intracellular face of the electrode to achieve intracellular access. Cells were held at −70 mV. Leak subtraction was conducted in all experiments by applying 50 ms hyperpolarizing (10 mV) prepulses to evoke leak currents followed by a 20 ms period at the holding potential before test pulses. From the holding potential of −70 mV, a first test pulse to −15 mV was applied for 100 ms and following a further 100 ms at −70 mV, a second pulse to 40 mV was applied for 50 ms. Cells were then maintained for a further 100 ms at −100 mV and then a voltage ramp from −100 mV to 40 mV was applied over 200 ms. Test pulses protocol may be performed in the absence (pre-read) and presence (post-read) of the test compound. Pre- and post-reads may be separated by the compound addition followed by a 3 minute incubation.
The intracellular solution contained the following (in mM): K-gluconate 100, KCl 54, MgCl2 3.2, HEPES 5, adjusted to pH 7.3 with KOH. Amphotericin-B solution was prepared as […] stock solution in DMSO and diluted to a final working concentration of 0.1 mg/ml in intracellular solution.
Compounds of the invention (or reference compounds such as N-cyclohexyl-N-[(7,8-dimethyl-2-oxo-1,2-dihydro-3-quinolinyl)methyl]-N′-phenylurea were dissolved in dimethylsulfoxide (DMSO) at a stock concentration of 10 mM. These solutions were further diluted with DMSO using a Biomek FX
Each dilution (1 μL) was transferred to another compound plate and external solution containing 0.05% pluronic acid (66 μL) was added. 3.5 μL from each plate containing a compound of the invention was added and incubated with the cells during the lonWorks Quattro™ experiment. The final assay dilution was 200 and the final compound concentrations were in the range 50 μM to 50 nM.

[2] = compound 1.6 μM (concentration giving ~0.3 nA current at end of pulse)
[3] = compound 0.8 μM (concentration giving ~0.3 nA current at end of pulse)
[4] = compound 0.4 μM (concentration giving ~0.3 nA current at end of pulse)
[5] = compound 3.1 μM (concentration giving ~0.3 nA current at end of pulse)

With `CC(N)Cc1ccccc1` (stereo not shown) [Amphetamine, amphetamine, reference compound] the “Locomotor activity (beam crosses)” value (Male CD-1 mice; amphetamine 2.0 mg/kg i.p. alone) was 16190 ± 2394 beam crosses and the total locomotor activity (Male CD-1 mice; amphetamine alone, 2 mg/kg i.p.) was “large and significant increase”.

In the case of `CN1CCN(C2=Nc3cc(Cl)ccc3Nc3ccccc32)CC1` [Clozapine, reference compound], the “Locomotor activity (beam crosses)” value (Male CD-1 mice; AMPH 2 mg/kg i.p. + clozapine i.p. 30 min before (positive control), p<0.001 vs amphetamine alone) is reported as 1546 ± 420 beam crosses.

For `CC[C@@]1(C)NC(=O)N(c2cnc(Oc3ccc(C)c4c3C3(CC3)CO4)nc2)C1=O` [Example 1, (5R)-5-ethyl-5-methyl-3-[2-(7-methylspiro[2H-benzofuran-3,1′-cyclopropane]-4-yl)oxypyrimidin-5-yl]imidazolidine-2,4-dione], the Tauact mean [1, 2] was 21.3 ms.

`CC[C@@]1(C)NC(=O)N(c2cnc(Oc3ccc(C)c4c3C(C)(C)CO4)nc2)C1=O` [Example 2, (5R)-5-ethyl-5-methyl-3-{2-[(3,3,7-trimethyl-2,3-dihydro-1-benzofuran-4-yl)oxy]-5-pyrimidinyl}-2,4-imidazolidinedione] showed a Tauact mean [1, 2] of 14.8 ms.

Compound `CC[C@@]1(C)NC(=O)N(c2cnc(Oc3ccc(C)c4c3OC(F)(F)O4)nc2)C1=O` [Example 3, (5R)-3-{2-[(2,2-difluoro-7-methyl-1,3-benzodioxol-4-yl)oxy]-5-pyrimidinyl}-5-ethyl-5-methyl-2,4-imidazolidinedione] has a Tauact mean ([1]; compound 25.0 μM (concentration giving ~0.3 nA current at end of pulse)) of 8.9 ms.

`CC[C@H]1NC(=O)N(c2cnc(Oc3ccc(C)c4c3C3(CC3)CO4)nc2)C1=O` [Example 5, (5R)-5-ethyl-3-[2-(7-methylspiro[2H-benzofuran-3,1′-cyclopropane]-4-yl)oxypyrimidin-5-yl]imidazolidine-2,4-dione] gave a Tauact mean [1, 3] of 31.5 ms.

`CC[C@H]1NC(=O)N(c2ccc(Oc3ccc(C)c4c3C3(CC3)CO4)nc2)C1=O` [Example 6, (5R)-5-ethyl-3-[6-(7-methylspiro[2H-benzofuran-3,1′-cyclopropane]-4-yl)oxy-3-pyridyl]imidazolidine-2,4-dione] gave a Tauact mean [1, 4] of 34.8 ms.

With `CC[C@H]1NC(=O)N(c2ccc(Oc3ccc(C)c4c3C(C)(C)CO4)nc2)C1=O` [Example 7, (5R)-5-ethyl-3-{6-[(3,3,7-trimethyl-2,3-dihydro-1-benzofuran-4-yl)oxy]-3-pyridinyl}-2,4-imidazolidinedione] the Tauact mean [1, 4] was 28.0 ms.

Work on `CC[C@H]1NC(=O)N(c2cnc(Oc3ccc(C)c4c3C(C)(C)CO4)nc2)C1=O` [Example 8, (5R)-5-ethyl-3-{2-[(3,3,7-trimethyl-2,3-dihydro-1-benzofuran-4-yl)oxy]-5-pyrimidinyl}-2,4-imidazolidinedione] yielded a Tauact mean [1, 2] of 25.0 ms.

Work on `CC[C@@]1(C)NC(=O)N(c2ccc(Oc3ccc(C)c4c3C3(CC3)CO4)nc2)C1=O` [Example 9, (5R)-5-ethyl-5-methyl-3-[6-(7-methylspiro[2H-benzofuran-3,1′-cyclopropane]-4-yl)oxy-3-pyridyl]imidazolidine-2,4-dione] yielded a Tauact mean [1, 3] of 24.0 ms.

Work on `Cc1ccc(Oc2ccc(N3C(=O)NC(C)(C)C3=O)cn2)c2c1OCC21CC1` [Example 10, 5,5-dimethyl-3-[6-(7-methylspiro[2H-benzofuran-3,1′-cyclopropane]-4-yl)oxy-3-pyridyl]imidazolidine-2,4-dione] yielded a Tauact mean [1, 2] of 17.3 ms.

`CC[C@H]1NC(=O)N(c2ccc(Oc3ccc(C)c(OC)c3)nc2)C1=O` [RE1, (5R)-5-ethyl-3-(6-{[4-methyl-3-(methyloxy)phenyl]oxy}-3-pyridinyl)-2,4-imidazolidinedione, reference compound] was tested, and the Tauact mean ([1]; compound 6.25 μM (concentration giving ~0.3 nA current at end of pulse)) was 9.9 ms.

For `CC[C@@]1(C)NC(=O)N(c2ccc(Oc3ccc(C)c(OC)c3)nc2)C1=O` [RE2, (5R)-5-ethyl-5-methyl-3-(6-{[4-methyl-3-(methyloxy)phenyl]oxy}-3-pyridinyl)-2,4-imidazolidinedione, reference compound], the Tauact mean ([1]; compound 12.5 μM (concentration giving ~0.3 nA current at end of pulse)) was 7.3 ms.

Compound `CC[C@H]1NC(=O)N(c2ccc(Oc3ccc(C#N)cc3C(C)(C)C)nc2)C1=O` [RE3, 3-(1,1-dimethylethyl)-4-({5-[(4R)-4-ethyl-2,5-dioxo-1-imidazolidinyl]-2-pyridinyl}oxy)benzonitrile, reference compound] has a Tauact mean ([1]; compound 0.2 μM (concentration giving ~0.3 nA current at end of pulse)) of 23.0 ms.

`CC[C@H]1NC(=O)N(c2ccc(Oc3ccc(C#N)c(C(C)C)c3)nc2)C1=O` [RE4, 4-({5-[(4R)-4-ethyl-2,5-dioxo-1-imidazolidinyl]-2-pyridinyl}oxy)-2-(1-methylethyl)benzonitrile, reference compound] showed a Tauact mean [1, 3] of 9.2 ms.

Work on `CC[C@H]1NC(=O)N(c2ccc(Oc3ccc(C#N)cc3C3CC3)nc2)C1=O` [RE5, 3-cyclopropyl-4-({5-[(4R)-4-ethyl-2,5-dioxo-1-imidazolidinyl]-2-pyridinyl}oxy)benzonitrile, reference compound] yielded a Tauact mean [1, 5] of 13.0 ms.

Compound `CC[C@H]1NC(=O)N(c2ccc(Oc3ccc(C#N)c(OC(F)(F)F)c3)nc2)C1=O` [RE7, 4-({5-[(4R)-4-ethyl-2,5-dioxo-1-imidazolidinyl]-2-pyridinyl}oxy)-2-[(trifluoromethyl)oxy]benzonitrile, reference compound] has a Tauact mean [1, 5] of 10.4 ms.

`CC[C@H]1NC(=O)N(c2ccc(Oc3ccc(C#N)c(OC(C)C)c3)nc2)C1=O` [RE8, 4-({5-[(4R)-4-ethyl-2,5-dioxo-1-imidazolidinyl]-2-pyridinyl}oxy)-2-[(1-methylethyl)oxy]benzonitrile, reference compound] gave a Tauact mean [1, 5] of 9.7 ms.
